Laboratory results as given in patent publication US20150079000A1, “Labelled Quinoxaline Derivatives as Multimodal Radiopharmaceuticals and Their Precursors” (INSTITUT NATIONAL DE LA SANTET DE LA RECHERCHE MEDICALE, priority 2012, published 2015).

Tested on: melanoma B16F0 tumours
Assay: In vivo scintigraphic imaging of [125I]-labelled compounds
Parameters: species or system C57BL/6J mice
Settings: planar scintigraphy
Source text: C57BL/6J male mice (6-8 weeks old) were obtained from Charles River (l'Arbresle, France) and the B 16F0 syngenic melanoma from ATCC (no. CRL-6322). Primary melanoma model was induced by subcutaneous injection of B 16F0 murine melanoma cells in C57BL/6J mice. B 16F0 melanoma cell cultures were maintained as monolayers in Dulbecco's Modified Eagle's Medium (DMEM)/Glutamax (Invitrogen, Cergy Pontoise, France) supplemented with 10% fetal calf serum (Sigma, Saint Quentin Fallavier, France), 1% vitamins (Invitrogen, Cergy-Pontoise, France), 1 mM sodium pyruvate (Invitrogen), 1% non essential amino acids (Invitrogen), and 4 μg/mL of gentamycin base (Invitrogen). Cells were grown at 37° C. in a humidified incubator containing 5% CO2. For transplantation, cells in exponential growth phase were trypsinized, washed with phosphate buffer saline (PBS), and resuspended in PBS. C57BL/6J mice anesthetized by isoflurane (2%) inhalation were inoculated with 3×10^5 melanoma B16F0 cells in 0.1 mL of PBS by subcutaneous injection on the right flank.
In vivo scintigraphic imaging protocol was submitted and approved by the french regional ethical animal use committee (CEMEA, Auvergne, authorization no. CE18-09, 2010). Scintigraphic imaging of radioiodinated compounds in mice was performed using a gamma camera dedicated to small animal imaging (γIMAGER, Biospace Mesures, Paris, France). This camera consists of a R 3292 Hamamatsu position-sensitive photomultiplier having a continuous 4 mm thick×120 mm diameter CsI (Na) crystal leading to a 10 cm field of view. For ^125I imaging, the camera was equipped with parallel-hole collimator 1.8/0.2/20 (hole diameter/septum thickness/height in mm). All the acquisitions were performed with a 15% window centered on the 35 keV peak of ^125I.
On day 14 after tumour implantation, each [^125I]-labelled compound was administered intravenously via the tail vein with 3.7 MBq/mouse (range 3-8 animals/compounds). The injected activity to each mouse was also determined from scintigraphic imaging of the syringe before and after the injection of the radiotracer. At different times after administration (1 h, 3 h, 6 h, 24 h, 72 h, 5 d, 7 d, 10 d and 14 d), mice were anaesthetized by i.p. administration (200 μL/mouse) of a ketamine-xylazine mixture in saline: ketamine (100 mg/kg, Imalgene, Rhône Merieux, Lyon, France) and xylazine (10 mg/kg, Rompun, Bayer, France). A 10 min duration image was acquired on anesthetized mice placed in prone position over the collimator of the camera. Reproducibility in animal positioning for the serial images was achieved using a graduated reference grid.
Quantitative analysis of scintigraphic scans was performed using the GAMMAVISION+ software (Biospace Mesures, Paris, France). Regions of interest (ROIs) were manually drawn around the tumour, the whole body area, the bladder, the eyes, the submaxillary and thyroid glands and the controlateral muscle which was chosen as background. For each ROI, total activity, min and max pixel values, ROI size (in mm^2), average activity per mm^2 and standard deviation were obtained. These values were normalized to the injected activity. For the tumour, the activity was also normalized to the tumour weight as previously described (Miot-Noirault, Cancer biotherapy & radiopharmaceuticals, 24 (2009) 629-636) and expressed as percentage of injected dose per gram of tumour (% ID/g).

| SMILES | % ID/g (tumour) (1 h after i.v. injection) [% ID/g] | % ID/g (tumour) (3 h after i.v. injection) [% ID/g] | % ID/g (tumour) (6 h after i.v. injection) [% ID/g] | % ID/g (tumour) (24 h after i.v. injection) [% ID/g] | % ID/g (tumour) (72 h after i.v. injection) [% ID/g] | % ID/g (tumour) (5 d after i.v. injection) [% ID/g] | % ID/g (tumour) (7 d after i.v. injection) [% ID/g] | % ID/g (tumour) (10 d after i.v. injection) [% ID/g] | % ID/g (tumour) (14 d after i.v. injection) [% ID/g] |
| --- | --- | --- | --- | --- | --- | --- | --- | --- | --- |
| CCN(CCNC(=O)c1cnc2cc([125I])ccc2n1)CCOCCOCCOCCF.Cl.Cl [[^125I]3] | 11.7 ± 2.2 | 12.1 ± 1.7 | 12.1 ± 1.9 | 12.4 ± 2.3 | 8.6 ± 3.6 | 5.8 ± 2.4 | 2.7 ± 0.8 | 1.3 ± 0.4 | 0.6 ± 0.3 |
| CCN(CCNC(=O)c1cnc2cc([125I])ccc2n1)CCOCCOCCOCCOCCOCCOCCOCCF [[^125I]5] | 6.8 ± 1.8 | 7.8 ± 1.5 | 7.2 ± 1.1 | 6.8 ± 1.7 | 3.8 ± 0.7 | 2.7 ± 0.3 | 1.5 ± 0.2 | 0.8 ± 0.3 | 0.3 ± 0.01 |
| CCN(CCNC(=O)c1cnc2cc([125I])ccc2n1)Cc1cn(CCF)nn1 [[^125I]7] | 13.0 ± 1.5 | 14.5 ± 0.1 | 15.9 ± 1.7 | 15.6 ± 3.4 | 11.0 ± 0.7 | 8.6 ± 0.4 | 5.3 ± 0.8 | 3.7 ± 0.3 | 1.8 ± 0.4 |
